# Like-named read-outs stand apart in the source and are kept apart here.
# Assays:
# [1] = test system: patients with advanced refractory solid tumors; experiment: Phase I safety and tolerability (DLT, MTD, adverse events NCI-CTCAE 4.0); format: in vivo; details: for dose-limiting toxicity: in vivo
# From the text: Those patients received escalating doses of anlotinib daily for (1) four consecutive weeks (4/0) or (2) 2-week on/1-week off (2/1). […] If two DLTs were observed during the first cycle in a cohort, dose-escalation was halted and dose continued at a lower level until the MTD (the highest dose level for which the incidence of first-cycle DLT was <33 %) was identified. In the absence of two or more DLTs in a cohort, the dose was escalated in a modified Fibonacci scheme. Treatment cycles were repeated until disease progression, unacceptable toxicity, or withdrawal of consent.
# Adverse events are graded into 0–5 according to the National Cancer Institute Common Terminology Criteria for Adverse Events (NCI-CTCAE 4.0). During treatment, blood pressure will be monitored every day. Patients with unresolved adverse reactions at the end of the test needed to be treated and followed until the reactions returned to the grade 1 degree or less, or stable.
# [2] = test system: advanced refractory solid tumors; experiment: Tumor response by RECIST 1.1; format: in vivo, human
# Protocol: Efficacies were evaluated according to NCI-proposed Response Evaluation Criteria In Solid Tumors (RECIST 1.1). The tumor will be assessed every two cycles including tumor-related symptoms and physical and imaging examination (CT or MRI) of superficial lesions. Physical and imaging examination of tumor lesions should be done at least four weeks after the first effect evaluation in patients with complete remission (CR), partial remission (PR), and stable disease (SD) to confirm efficacy.
# [3] = Single-dose pharmacokinetics in cancer patients; format: in vivo, human; details: for AUC(0-t): read-out: AUC0–120h
# Protocol: In single-dose studies, anlotinib were administered orally at dose of 5, 10, 12, or 16 mg anlotinib/person. Serial blood samples were collected in heparinized tubes before and at 0.5, 1, 2, 4, 8, 11, 24, 48, 72, 96, 120, 144, 168, 192, 216, and 240 h (samples of 144–240 h were collected only in 12 or 16 mg/person dose group) after dosing. In the 10 mg/person dose group, urine was sampled before and 0–2, 2–6, 6–11, 11–24, 24–34, 34–48, 48–58, 58–72, 72–96, and 96–120 h after dosing. In multiple-dose studies, there were two ways of multiple-dose administration. Initially, patients in 5 and 10 mg/person/day groups were treated consecutively for 28 days. Blood samples were collected 24 h after dosing on days 1, 2, 4, 7, 10, 13, 15, 16, 18, 21, 24, 28, and 29. Later, the other volunteers were given multiple doses of anlotinib at 10, 12, or 16 mg anlotinib/person/day in the 2/1 schedule for two cycles. Blood samples were collected 24 h after dosing on days 1, 4, 7, 10, 13, 15, 18, 22, 29, and 36. The collected blood samples were centrifuged to prepare plasma fractions; the urine samples were weighed after collection. All samples were stored at −70 °C for subsequent analysis. Concentrations of anlotinib were measured by liquid chromatography/mass spectrometry.
# (§1) The maximum concentration (C max) and the time taken to achieve C max (T max) were obtained directly from the data with no interpolation. The area under concentration-time curve up to the last measured time point (AUC0 − t) was calculated by the trapezoidal rule. The elimination half-life (t 1/2) was calculated using the relationship 0.693/k. The k was estimated by linear regression analysis of the terminal portion of the log concentration-time data. The renal clearance (CLR) was calculated by dividing the cumulative amount excreted into urine (Cum.A e − U) by plasma AUC0 − t. Accumulation ratio (R ac) was used to indicate the extent of accumulation during multiple doses of anlotinib capsules and calculated using the following equation: Rac=C24hDay15/C24hDay1,
# where C 24 h(Day1) and C 24 h(Day15) are plasma concentrations of anlotinib at 24 h after dosing on day 1 and day 15, respectively. Plasma pharmacokinetic (PK) parameters were determined using noncompartmental method with a Kinetica software package (version 5.0; Thermo Scientific, Philadelphia, PA).
# [4] = Multiple-dose pharmacokinetics in cancer patients; format: in vivo, human
# Protocol: In single-dose studies, anlotinib were administered orally at dose of 5, 10, 12, or 16 mg anlotinib/person. Serial blood samples were collected in heparinized tubes before and at 0.5, 1, 2, 4, 8, 11, 24, 48, 72, 96, 120, 144, 168, 192, 216, and 240 h (samples of 144–240 h were collected only in 12 or 16 mg/person dose group) after dosing. In the 10 mg/person dose group, urine was sampled before and 0–2, 2–6, 6–11, 11–24, 24–34, 34–48, 48–58, 58–72, 72–96, and 96–120 h after dosing. In multiple-dose studies, there were two ways of multiple-dose administration. Initially, patients in 5 and 10 mg/person/day groups were treated consecutively for 28 days. […] Concentrations of anlotinib were measured by liquid chromatography/mass spectrometry.
# as §1, with “The k was estimated by linear regression analysis of the terminal portion of the log concentration-time data.” left out, “Rac=C24hDay15/C24hDay1, […]” for “Rac=C24hDay15/C24hDay1,”
# VEGFR2/KDR = test system: VEGFR2/KDR; parameters: method as in details pending publication elsewhere; details: recombinant enzymes; ref details pending publication elsewhere; cited from earlier work
# VEGFR3 = test system: VEGFR3; parameters: method as in details pending publication elsewhere; details: recombinant enzymes; ref details pending publication elsewhere; cited from earlier work
# FGFR1-4 = details: especially FGFR2; to a greater extent than sorafenib; preclinical results; cited from earlier work
# [5] = test system: tumor cells carrying mutations in PDGFR α, c-Kit, Met, and EGFR; details: preclinical background; cited from earlier work
# [6] = test system: human tumor xenograft models (SW-620, SK-OV-3, SMMC-7721, Caki-1, U87MG, Calu-3); details: colon, ovarian, liver, renal, glioma, non-small cell lung; during dosing period; cited from earlier work
# [7] = rats, cited from earlier work
# [8] = dogs; cited from earlier work
# [9] = tumor-bearing mice; cited from earlier work
# [10] = test system: human cytochrome P450 3A4; details: in vitro; read-out: half maximum inhibitory concentration; cited from earlier work
# [11] = test system: human cytochrome P450 2C9; details: in vitro; read-out: half maximum inhibitory concentration; cited from earlier work
# [12] = 12 mg/day 2/1 schedule, 20 assessable patients
# [13] = human, plasma, single oral dose 5 mg/person (n = 1)
# [14] = human, plasma, single oral dose 10 mg/person (n = 4)
# [15] = human, plasma, single oral dose 12 mg/person (n = 11)
# [16] = human, plasma, single oral dose 16 mg/person (n = 4)
# [17] = human, plasma, single oral dose 5-16 mg/person, range
smiles,measurement,setting,value
COc1cc2c(Oc3ccc4[nH]c(C)cc4c3F)ccnc2cc1OCC1(N)CC1 [anlotinib],dose-limiting toxicity,[1]; human,grade 3 hypertension and grade 3 fatigue
same,dose-limiting toxicity,"[1]; human, 4 weeks",grade 3 hypertension
same,dose-limiting toxicity,[1],no DLT
same,maximum tolerated dose,"[1]; once daily, 2/1 schedule",12 mg
same,patients with tumor burden shrinkage,[2]; 12 mg once daily,More than 60%
same,partial response (PR),[2]; [12],15%
same,"partial response (PR), patients",[2]; [12],3
same,patients with tumor burden shrinkage among SD,[2]; [12],12
same,progressive disease (PD),[2]; [12],15%
same,"progressive disease (PD), patients",[2]; [12],3
same,"stable disease (SD), patients",[2]; [12],14
same,half-life,"[3]; human, plasma, oral, mean over doses, dose-independent",96 ± 17 h
same,AUC(0-inf),[3]; [13],687 ng·h/mL
same,Cmax,[3]; [13],5.8 ng/mL
same,Tmax,[3]; [13],11 h
same,half-life,[3]; [13],102 h
same,AUC(0-t),[3]; [13],411 ng·h/mL
same,AUC(0-inf),[3]; [14],562 ± 328 ng·h/mL
same,Cmax,[3]; [14],5.8 ± 2.8 ng/mL
same,Tmax,[3]; [14],6 ± 4.4 h
same,half-life,[3]; [14],95 ± 22 h
same,AUC(0-t),[3]; [14],318 ± 133 ng·h/mL
same,AUC(0-inf),[3]; [15],1070 ± 263 ng·h/mL
same,Cmax,[3]; [15],10.5 ± 2.9 ng/mL
same,Tmax,[3]; [15],7.3 ± 3.3 h
same,half-life,[3]; [15],116 ± 47 h
same,AUC(0-t),[3]; [15],617 ± 194 ng·h/mL
same,AUC(0-inf),[3]; [16],1580 ± 470 ng·h/mL
same,Cmax,[3]; [16],15.8 ± 3.2 ng/mL
same,Tmax,[3]; [16],11 ± 8.9 h
same,half-life,[3]; [16],98 ± 15 h
same,AUC(0-t),[3]; [16],894 ± 305 ng·h/mL
same,MRT,[3]; [17],124 to 167 h
same,Tmax,[3]; [17],4 to 11 h
same,half-life,[3]; [17],64 to 136 h
same,CL renal,"[3]; human, urine and plasma, single oral dose, urine sampled in 10 mg/person group, read-out: renal clearance CLR (converted)",4 mL/h/kg
same,"dose proportionality of AUC0–120h, Conclusion",[3]; single oral dose,Inconclusive
same,"dose proportionality of AUC0–∞, Conclusion",[3]; single oral dose,Inconclusive
same,"dose proportionality of C max, Conclusion",[3]; single oral dose,Inconclusive
same,fraction of the dose excreted into urine (f e − U),"[3]; single oral dose, urine sampled in 10 mg/person group",~ 0.9%
same,day at which maximum plasma concentration was reached,"[4]; 2/1 schedule, 2-week dosing",14 days
same,accumulation ratio R ac (C24h Day15/C24h Day1),"[4]; multiple oral doses, mean",12 ± 7
same,potency relative to sorafenib,VEGFR2/KDR,~500 times
same,potency relative to sunitinib,VEGFR2/KDR,approximately 20 times
same,potency relative to sorafenib,VEGFR3,~500 times
same,potency relative to sunitinib,VEGFR3,approximately 20 times
same,inactivation of FGFR1-4,FGFR1-4,significantly inactivated
same,antitumor activity against tumor cells carrying mutations,[5],showed antitumor activity
same,activity against human tumor xenograft models,[6],broad activity
same,oral bioavailability,[7]; oral,23–45%
same,"exposure level in lung, kidneys, liver, heart compared with plasma",[7],significant higher
same,exposure level in the brain compared with plasma level,[7],comparable
same,oral bioavailability,[8],47–74%
same,concentration in tumor tissue relative to plasma,[9],2.4–2.6 times
same,IC50,[10],110 nM
same,IC50,[11],250 nM
